How the values were obtained:
OVCAR-5 = assay: cells; assay type: functional, cell-based, Homo sapiens; settings: Homo sapiens, OVCAR-5;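 further: growth inhibition of human OVCAR-5 cells, read out with a cell viability assay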
Description: SANGER: Inhibition of human OVCAR-5 cell growth in a cell viability assay.

SW1573 = assay: cells; assay type: functional, cell-based, Homo sapiens; settings: Homo sapiens, SW1573;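 further: growth inhibition of SW1573 cells, read out with a cell viability assay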
Description: SANGER: Inhibition of human SW1573 cell growth in a cell viability assay.

WSU-NHL = assay: cells; assay type: functional, cell-based, Homo sapiens; settings: Homo sapiens, WSU-NHL;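 further: growth inhibition of human WSU-NHL cells, read out with a cell viability assay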
Description: SANGER: Inhibition of human WSU-NHL cell growth in a cell viability assay.

CAL-148 = assay: cells; assay type: functional, cell-based, Homo sapiens; settings: Homo sapiens, CAL-148
Description: SANGER: Inhibition of human CAL-148 cell growth in a cell viability assay.

MKN-45 = assay: cells; assay type: functional, cell-based, Homo sapiens; settings: Homo sapiens, MKN-45;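 further: growth inhibition of human MKN-45 cells, measured with a cell viability assay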
Description: SANGER: Inhibition of human MKN45 cell growth in a cell viability assay.

CAL-39 = assay: cells; assay type: functional, cell-based, Homo sapiens; settings: Homo sapiens, CAL-39;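 further: cell viability assay measuring growth inhibition of CAL-39 cells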
Description: SANGER: Inhibition of human CAL-39 cell growth in a cell viability assay.

NCI-H1563 = assay: cells; assay type: functional, cell-based, Homo sapiens; settings: Homo sapiens, NCI-H1563;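 further: growth inhibition of human NCI-H1563 cells, read out with a cell viability assay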
Description: SANGER: Inhibition of human NCI-H1563 cell growth in a cell viability assay.

HPAF-II = assay: cells; assay type: functional, cell-based, Homo sapiens; settings: Homo sapiens, HPAF-II;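 further: growth inhibition of HPAF-II cells, read out with a cell viability assay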
Description: SANGER: Inhibition of human HPAF-II cell growth in a cell viability assay.

SNU-449 = assay: cells; assay type: functional, cell-based, Homo sapiens; settings: Homo sapiens, SNU-449
Description: SANGER: Inhibition of human SNU-449 cell growth in a cell viability assay.

MC-IXC = assay: cells; assay type: functional, cell-based, Homo sapiens; settings: Homo sapiens, MC-IXC;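 further: growth inhibition of MC-IXC cells, read out with a cell viability assay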
Description: SANGER: Inhibition of human MC-IXC cell growth in a cell viability assay.

HCT-116 = assay: cells; assay type: functional, cell-based, Homo sapiens; settings: Homo sapiens, HCT-116
Description: SANGER: Inhibition of human HCT-116 cell growth in a cell viability assay.

EB-3 = assay: cells; assay type: functional, cell-based, Homo sapiens; settings: Homo sapiens, EB-3;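 further: human EB-3 cells, growth inhibition read out via a cell viability assay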
Description: SANGER: Inhibition of human EB-3 cell growth in a cell viability assay.

ESS-1 = assay: cells; assay type: functional, cell-based, Homo sapiens; settings: Homo sapiens, ESS-1;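 further: growth inhibition of human ESS-1 cells, read out by a cell viability assay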
Description: SANGER: Inhibition of human ESS-1 cell growth in a cell viability assay.

CP50-MEL-B = assay: cells; assay type: functional, cell-based, Homo sapiens; settings: Homo sapiens, CP50-MEL-B;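 further: growth inhibition of the human cell line, measured with a cell viability read-out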
Description: SANGER: Inhibition of human CP50-MEL-B cell growth in a cell viability assay.

HLE = assay: cells; assay type: functional, cell-based, Homo sapiens; settings: Homo sapiens, HLE;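 further: growth inhibition of human HLE cells, read out by a cell viability assay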
Description: SANGER: Inhibition of human HLE cell growth in a cell viability assay.

CWR22R = assay: cells; assay type: functional, cell-based, Homo sapiens; settings: Homo sapiens, 22Rv1;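 further: growth inhibition of 22Rv1 cells, read out with a cell viability assay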
Description: SANGER: Inhibition of human 22RV1 cell growth in a cell viability assay.

GAMG = assay: cells; assay type: functional, cell-based, Homo sapiens; settings: Homo sapiens, GAMG;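 further: cell growth inhibition measured by a viability assay in the GAMG human cell line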
Description: SANGER: Inhibition of human GAMG cell growth in a cell viability assay.

MDA-MB-175-VII = assay: cells; assay type: functional, cell-based, Homo sapiens; settings: Homo sapiens, MDA-MB-175-VII
SKG-IIIa = assay: cells; assay type: functional, cell-based, Homo sapiens; settings: Homo sapiens, SKG-IIIa;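 further: cell growth inhibition, read out with a cell viability assay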
Description: SANGER: Inhibition of human SKG-IIIa cell growth in a cell viability assay.

RL = assay: cells; assay type: functional, cell-based, Homo sapiens; settings: Homo sapiens, RL
Description: SANGER: Inhibition of human RL cell growth in a cell viability assay.

NCI-H2171 = assay: cells; assay type: functional, cell-based, Homo sapiens; settings: Homo sapiens, NCI-H2171;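 further: growth inhibition of human NCI-H2171 cells, read out by a cell viability assay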
Description: SANGER: Inhibition of human NCI-H2171 cell growth in a cell viability assay.

KOSC-2 = assay: cells; assay type: functional, cell-based, Homo sapiens; settings: Homo sapiens, KOSC-2;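 further: growth inhibition of KOSC-2 cells, read out by a cell viability assay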
Description: SANGER: Inhibition of human KOSC-2 cell growth in a cell viability assay.

MC-CAR = assay: cells; assay type: functional, cell-based, Homo sapiens; settings: Homo sapiens, MC-CAR;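 further: growth inhibition of the human MC-CAR cell line, read out by a cell viability assay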
Description: SANGER: Inhibition of human MC-CAR cell growth in a cell viability assay.

NCI-H716 = assay: cells; assay type: functional, cell-based, Homo sapiens; settings: Homo sapiens, NCI-H716;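 further: growth inhibition of human NCI-H716 cells, measured by a cell viability assay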
Description: SANGER: Inhibition of human NCI-H716 cell growth in a cell viability assay.

NY = assay: cells; assay type: functional, cell-based, Homo sapiens; settings: Homo sapiens, NY
Description: SANGER: Inhibition of human NY cell growth in a cell viability assay.

SIG-M5 = assay: cells; assay type: functional, cell-based, Homo sapiens; settings: Homo sapiens, SIG-M5;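 further: cell viability assay read-out, measuring how strongly growth of cultured human SIG-M5 cells is inhibited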
Description: SANGER: Inhibition of human SIG-M5 cell growth in a cell viability assay.

AN3-CA = assay: cells; assay type: functional, cell-based, Homo sapiens; settings: Homo sapiens, AN3-CA;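 further: growth inhibition of human AN3-CA cells measured by a cell viability assay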
Description: SANGER: Inhibition of human AN3-CA cell growth in a cell viability assay.

NCI-H322M = assay: cells; assay type: functional, cell-based, Homo sapiens; settings: Homo sapiens, NCI-H322M;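 further: cell viability assay measuring inhibition of growth of human NCI-H322M cells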
Description: SANGER: Inhibition of human NCI-H322M cell growth in a cell viability assay.

PF-382 = assay: cells; assay type: functional, cell-based, Homo sapiens; settings: Homo sapiens, PF-382
Description: SANGER: Inhibition of human PF-382 cell growth in a cell viability assay.

Daoy = assay: cells; assay type: functional, cell-based, Homo sapiens; settings: Homo sapiens, Daoy;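 further: daoy cell growth inhibition, read out as cell viability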
Description: SANGER: Inhibition of human Daoy cell growth in a cell viability assay.

RCM-1 = assay: cells; assay type: functional, cell-based, Homo sapiens; settings: Homo sapiens, RCM-1;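 further: growth inhibition of the RCM-1 line, determined with a cell viability readout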
Description: SANGER: Inhibition of human RCM-1 cell growth in a cell viability assay.

THP-1 = assay: cells; assay type: functional, cell-based, Homo sapiens; settings: Homo sapiens, THP-1;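 further: growth inhibition of THP-1 cells, read out via a cell viability assay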
Description: SANGER: Inhibition of human THP-1 cell growth in a cell viability assay.

NCI-H748 = assay: cells; assay type: functional, cell-based, Homo sapiens; settings: Homo sapiens, NCI-H748;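 further: growth inhibition of NCI-H748 cells, measured by a cell viability assay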
Description: SANGER: Inhibition of human NCI-H748 cell growth in a cell viability assay.

BFTC-909 = assay: cells; assay type: functional, cell-based, Homo sapiens; settings: Homo sapiens, BFTC-909
Description: SANGER: Inhibition of human BFTC-909 cell growth in a cell viability assay.

BC1 cell line = assay: SANGER: Inhibition of human BC-1 cell growth in a cell viability assay.; assay type: functional, cell-based; settings: Homo sapiens, BC1
MFE-280 = assay: cells; assay type: functional, cell-based, Homo sapiens; settings: Homo sapiens, MFE-280;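 further: growth inhibition of MFE-280 cells, determined with a cell viability readout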
Description: SANGER: Inhibition of human MFE-280 cell growth in a cell viability assay.

Raji = assay: cells; assay type: functional, cell-based, Homo sapiens; settings: Homo sapiens, Raji;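 further: cell viability assay measuring inhibition of Raji cell growth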
Description: SANGER: Inhibition of human Raji cell growth in a cell viability assay.

REH = assay: cells; assay type: functional, cell-based, Homo sapiens; settings: Homo sapiens, REH;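 further: growth inhibition of REH cells determined with a cell viability read-out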
Description: SANGER: Inhibition of human REH cell growth in a cell viability assay.

SCLC-21H = assay: cells; assay type: functional, cell-based, Homo sapiens; settings: Homo sapiens, SCLC-21H;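 further: growth inhibition of cultured human SCLC-21H cells, read out with a cell viability assay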
Description: SANGER: Inhibition of human SCLC-21H cell growth in a cell viability assay.

ARH-77 = assay: cells; assay type: functional, cell-based, Homo sapiens; settings: Homo sapiens, ARH-77;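 further: growth inhibition of ARH-77 cells, read out by a cell viability assay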
Description: SANGER: Inhibition of human ARH-77 cell growth in a cell viability assay.

NCI-H2452 = assay: cells; assay type: functional, cell-based, Homo sapiens; settings: Homo sapiens, NCI-H2452;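 further: growth inhibition of NCI-H2452 cells, read out with a cell viability assay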
Description: SANGER: Inhibition of human NCI-H2452 cell growth in a cell viability assay.

Daudi = assay: cells; assay type: functional, cell-based, Homo sapiens; settings: Homo sapiens, Daudi;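 further: growth inhibition of Daudi cells, read out by a viability assay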
Description: SANGER: Inhibition of human Daudi cell growth in a cell viability assay.

ABC-1 = assay: cells; assay type: functional, cell-based, Homo sapiens; settings: Homo sapiens, ABC-1;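 further: growth inhibition of human ABC-1 cells, read out by a cell viability assay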
Description: SANGER: Inhibition of human ABC-1 cell growth in a cell viability assay.

M14 = assay: cells; assay type: functional, cell-based, Homo sapiens; settings: Homo sapiens, M14;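 further: growth inhibition of M14 cells, read out with a cell viability assay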
Description: SANGER: Inhibition of human M14 cell growth in a cell viability assay.

SK-LU-1 = assay: cells; assay type: functional, cell-based, Homo sapiens; settings: Homo sapiens, SK-LU-1;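 further: cell viability assay measuring growth inhibition of human SK-LU-1 cells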
Description: SANGER: Inhibition of human SK-LU-1 cell growth in a cell viability assay.

Structure (SMILES): Cc1cc([N+](=O)[O-])ccc1NS(=O)(=O)c1cc(Cl)ccc1Cl
- IC50 (OVCAR-5): 23.6 µM
- IC50 (SW1573): 9.54 µM
- IC50 (WSU-NHL): 11.8 µM
- IC50 (CAL-148): 13.7 µM
- IC50 (MKN-45): 2.15 µM
- IC50 (CAL-39): 2.16 µM
- IC50 (NCI-H1563): 9.47 µM
- IC50 (HPAF-II): 10.7 µM
- IC50 (SNU-449): 5.94 µM
- IC50 (MC-IXC): 2.51 µM
- IC50 (HCT-116): 3.72 µM
- IC50 (EB-3): 4.25 µM
- IC50 (ESS-1): 7.38 µM
- IC50 (CP50-MEL-B): 1.03 µM
- IC50 (HLE): 1.99 µM
- IC50 (CWR22R): 2.63 µM
- IC50 (GAMG): 5.58 µM
- IC50 (MDA-MB-175-VII): 2.02 µM
- IC50 (SKG-IIIa): > 32 µM
- IC50 (RL): > 32 µM
- IC50 (NCI-H2171): > 32 µM
- IC50 (KOSC-2): > 32 µM
- IC50 (MC-CAR): 8.99 µM
- IC50 (NCI-H716): > 32 µM
- IC50 (NY): 3.32 µM
- IC50 (SIG-M5): 3.36 µM
- IC50 (AN3-CA): 1.08 µM
- IC50 (NCI-H322M): > 32 µM
- IC50 (PF-382): 7.73 µM
- IC50 (Daoy): 4.14 µM
- IC50 (RCM-1): 8.76 µM
- IC50 (THP-1): 19.6 µM
- IC50 (NCI-H748): > 32 µM
- IC50 (BFTC-909): 3.61 µM
- IC50 (BC1 cell line): 3.6 µM
- IC50 (MFE-280): 2.77 µM
- IC50 (Raji): 6.44 µM
- IC50 (REH): 11.5 µM
- IC50 (SCLC-21H): 4.84 µM
- IC50 (ARH-77): > 32 µM
- IC50 (NCI-H2452): > 32 µM
- IC50 (Daudi): 1.25 µM
- IC50 (ABC-1): 3.41 µM
- IC50 (M14): > 32 µM
- IC50 (SK-LU-1): 3.27 µM

Structure (SMILES): Nc1ccn([C@@H]2O[C@H](CO)[C@@H](O)C2(F)F)c(=O)n1 [GEMCITABINE]
- IC50 (OVCAR-5): 0.306 µM
- IC50 (SW1573): 0.457 µM
- IC50 (WSU-NHL): 0.0503 µM
- IC50 (CAL-148): 0.0172 µM
- IC50 (MKN-45): 0.0177 µM
- IC50 (CAL-39): > 1.02 µM
- IC50 (NCI-H1563): > 1.02 µM
- IC50 (HPAF-II): 0.428 µM
- IC50 (SNU-449): 0.0138 µM
- IC50 (MC-IXC): 0.00226 µM
- IC50 (HCT-116): 0.0508 µM
- IC50 (EB-3): > 1.02 µM
- IC50 (ESS-1): < 0.004 µM
- IC50 (CP50-MEL-B): > 1.02 µM
- IC50 (HLE): 0.003 µM
- IC50 (CWR22R): 0.0965 µM
- IC50 (GAMG): 0.00374 µM
- IC50 (MDA-MB-175-VII): > 1.02 µM
- IC50 (SKG-IIIa): 0.81 µM
- IC50 (RL): > 1.02 µM
- IC50 (NCI-H2171): > 1.02 µM
- IC50 (KOSC-2): > 1.02 µM
- IC50 (MC-CAR): 0.0116 µM
- IC50 (NCI-H716): > 1.02 µM
- IC50 (NY): 0.0302 µM
- IC50 (SIG-M5): < 0.004 µM
- IC50 (AN3-CA): 0.203 µM
- IC50 (NCI-H322M): > 1.02 µM
- IC50 (PF-382): 0.0442 µM
- IC50 (Daoy): < 0.004 µM
- IC50 (RCM-1): 0.665 µM
- IC50 (THP-1): 0.664 µM
- IC50 (NCI-H748): 0.355 µM
- IC50 (BFTC-909): 0.146 µM
- IC50 (BC1 cell line): 0.0338 µM
- IC50 (MFE-280): > 1.02 µM
- IC50 (Raji): 0.431 µM
- IC50 (REH): 0.0145 µM
- IC50 (SCLC-21H): > 1.02 µM
- IC50 (ARH-77): < 0.004 µM
- IC50 (NCI-H2452): > 1.02 µM
- IC50 (Daudi): 0.569 µM
- IC50 (ABC-1): 0.0226 µM
- IC50 (M14): 0.515 µM
- IC50 (SK-LU-1): < 0.004 µM
